± gives the uncertainty stated by the source.
Assay: xn = mol fraction of the nth substance listed

With `COc1ccccc1O` + Cc1ccccc1N the viscosity (303.15 K, 101 kPa, x2 = 0.1) was 4.73 ± 0.13 mPa·s, the viscosity (303.15 K, 101 kPa, x2 = 0.2) was 4.93 ± 0.13 mPa·s and the viscosity (303.15 K, 101 kPa, x2 = 0.3) was 5.2 ± 0.14 mPa·s. For the same compound, the viscosity (303.15 K, 101 kPa, x2 = 0.34) was 5.22 ± 0.14 mPa·s, the viscosity (303.15 K, 101 kPa, x2 = 0.36) was 5.19 ± 0.14 mPa·s and the viscosity (303.15 K, 101 kPa, x2 = 0.4) was 5.17 ± 0.14 mPa·s. For the same compound, the viscosity (303.15 K, 101 kPa, x2 = 0.5) was 5.12 ± 0.14 mPa·s, the viscosity (303.15 K, 101 kPa, x2 = 0.6) was 4.82 ± 0.13 mPa·s and the viscosity (303.15 K, 101 kPa, x2 = 0.7) was 4.38 ± 0.12 mPa·s. The viscosity (303.15 K, 101 kPa, x2 = 0.8) was 4 ± 0.11 mPa·s and the viscosity (303.15 K, 101 kPa, x2 = 0.9) was 3.58 ± 0.1 mPa·s.

`Brc1ccccc1` + ClC(Cl)(Cl)Cl showed a viscosity (298 K, 101.3 kPa, x2 = 0.1709) of 1.035 ± 0.013 mPa·s, a viscosity (298 K, 101.3 kPa, x2 = 0.3202) of 1.011 ± 0.012 mPa·s and a viscosity (298 K, 101.3 kPa, x2 = 0.5187) of 0.971 ± 0.011 mPa·s. It also gave a viscosity (298 K, 101.3 kPa, x2 = 0.6674) of 0.942 ± 0.01 mPa·s, a viscosity (298 K, 101.3 kPa, x2 = 0.8522) of 0.915 ± 0.009 mPa·s and a viscosity (303.15 K, 101 kPa, x1 = 0.092) of 0.727 ± 0.013 mPa·s. For the same compound, the viscosity (303.15 K, 101 kPa, x1 = 0.187) was 0.653 ± 0.011 mPa·s, the viscosity (303.15 K, 101 kPa, x1 = 0.283) was 0.624 ± 0.011 mPa·s and the viscosity (303.15 K, 101 kPa, x1 = 0.38) was 0.595 ± 0.011 mPa·s. For the same compound, the viscosity (303.15 K, 101 kPa, x1 = 0.479) was 0.619 ± 0.011 mPa·s, the viscosity (303.15 K, 101 kPa, x1 = 0.58) was 0.656 ± 0.012 mPa·s and the viscosity (303.15 K, 101 kPa, x1 = 0.682) was 0.7 ± 0.012 mPa·s. For the same compound, the viscosity (303.15 K, 101 kPa, x1 = 0.787) was 0.778 ± 0.013 mPa·s, the viscosity (303.15 K, 101 kPa, x1 = 0.892) was 0.881 ± 0.015 mPa·s and the viscosity (318 K, 101.3 kPa, x2 = 0.1581) was 0.8313 ± 0.03 mPa·s. For the same compound, the viscosity (318 K, 101.3 kPa, x2 = 0.3169) was 0.8147 ± 0.029 mPa·s, the viscosity (318 K, 101.3 kPa, x2 = 0.5212) was 0.7898 ± 0.029 mPa·s and the viscosity (318 K, 101.3 kPa, x2 = 0.6657) was 0.7758 ± 0.028 mPa·s. For the same compound, the viscosity (318 K, 101.3 kPa, x2 = 0.8618) was 0.76 ± 0.028 mPa·s.

In the case of `COC(=O)CC(=O)OC` + ClC(Cl)(Cl)Cl, the viscosity (303.15 K, 101 kPa, x1 = 0.0856) is reported as 0.9503 ± 0.0094 mPa·s, the viscosity (303.15 K, 101 kPa, x1 = 0.1747) is reported as 1.064 ± 0.01 mPa·s and the viscosity (303.15 K, 101 kPa, x1 = 0.2659) is reported as 1.186 ± 0.012 mPa·s. For the same compound, the viscosity (303.15 K, 101 kPa, x1 = 0.3608) was 1.295 ± 0.013 mPa·s, the viscosity (303.15 K, 101 kPa, x1 = 0.4586) was 1.409 ± 0.014 mPa·s and the viscosity (303.15 K, 101 kPa, x1 = 0.5599) was 1.52 ± 0.015 mPa·s. It also gave a viscosity (303.15 K, 101 kPa, x1 = 0.6641) of 1.601 ± 0.016 mPa·s, a viscosity (303.15 K, 101 kPa, x1 = 0.7723) of 1.687 ± 0.017 mPa·s and a viscosity (303.15 K, 101 kPa, x1 = 0.8841) of 1.753 ± 0.017 mPa·s.

In the case of `Brc1ccccc1` + ClC(Cl)=C(Cl)Cl, the viscosity (303.15 K, 101 kPa, x2 = 0.1026) is reported as 0.978 ± 0.009 mPa·s, the viscosity (303.15 K, 101 kPa, x2 = 0.1749) is reported as 0.971 ± 0.009 mPa·s and the viscosity (303.15 K, 101 kPa, x2 = 0.2799) is reported as 0.96 ± 0.009 mPa·s. The viscosity (303.15 K, 101 kPa, x2 = 0.3996) was 0.945 ± 0.009 mPa·s, the viscosity (303.15 K, 101 kPa, x2 = 0.4574) was 0.933 ± 0.008 mPa·s and the viscosity (303.15 K, 101 kPa, x2 = 0.5408) was 0.916 ± 0.008 mPa·s. It also gave a viscosity (303.15 K, 101 kPa, x2 = 0.6276) of 0.894 ± 0.008 mPa·s, a viscosity (303.15 K, 101 kPa, x2 = 0.7273) of 0.871 ± 0.008 mPa·s and a viscosity (303.15 K, 101 kPa, x2 = 0.8585) of 0.84 ± 0.008 mPa·s. It also gave a viscosity (303.15 K, 101 kPa, x2 = 0.9426) of 0.822 ± 0.008 mPa·s.

`COC(=O)CC(=O)OC` + ClC(Cl)Cl showed a viscosity (303.15 K, 101 kPa, x1 = 0.0727) of 0.612 ± 0.0062 mPa·s, a viscosity (303.15 K, 101 kPa, x1 = 0.1507) of 0.727 ± 0.0073 mPa·s and a viscosity (303.15 K, 101 kPa, x1 = 0.2329) of 0.845 ± 0.0084 mPa·s. The viscosity (303.15 K, 101 kPa, x1 = 0.3213) was 0.968 ± 0.0095 mPa·s, the viscosity (303.15 K, 101 kPa, x1 = 0.415) was 1.092 ± 0.011 mPa·s and the viscosity (303.15 K, 101 kPa, x1 = 0.5154) was 1.222 ± 0.012 mPa·s. It also gave a viscosity (303.15 K, 101 kPa, x1 = 0.6231) of 1.354 ± 0.013 mPa·s, a viscosity (303.15 K, 101 kPa, x1 = 0.7393) of 1.492 ± 0.015 mPa·s and a viscosity (303.15 K, 101 kPa, x1 = 0.8644) of 1.64 ± 0.016 mPa·s.

With `BrCCBr` + ClCCCl the viscosity (298.15 K, 101 kPa, x2 = 0.175) was 1.421 ± 0.019 mPa·s, the viscosity (298.15 K, 101 kPa, x2 = 0.3753) was 1.216 ± 0.016 mPa·s and the viscosity (298.15 K, 101 kPa, x2 = 0.5066) was 1.117 ± 0.015 mPa·s. It also gave a viscosity (298.15 K, 101 kPa, x2 = 0.6547) of 1.006 ± 0.013 mPa·s, a viscosity (298.15 K, 101 kPa, x2 = 0.7793) of 0.9179 ± 0.012 mPa·s and a viscosity (298.15 K, 101 kPa, x2 = 0.8501) of 0.8648 ± 0.011 mPa·s.

For `Brc1ccccc1` + Clc1ccccc1, the viscosity (298.15 K, 101 kPa, x2 = 0.299) was 0.934 ± 0.009 mPa·s, the viscosity (298.15 K, 101 kPa, x2 = 0.512) was 0.86 ± 0.009 mPa·s and the viscosity (298.15 K, 101 kPa, x2 = 0.676) was 0.823 ± 0.008 mPa·s. It also gave a viscosity (298.15 K, 101 kPa, x2 = 0.828) of 0.774 ± 0.008 mPa·s.

For `CC(F)(F)Cl` + FC(F)Cl, the viscosity (293.15 K, 101 kPa, x2 = 0.115) was 0.2343 ± 0.0064 mPa·s, the viscosity (293.15 K, 101 kPa, x2 = 0.331) was 0.2197 ± 0.006 mPa·s and the viscosity (293.15 K, 101 kPa, x2 = 0.54) was 0.2009 ± 0.0055 mPa·s. The viscosity (293.15 K, 101 kPa, x2 = 0.635) was 0.2028 ± 0.0055 mPa·s, the viscosity (293.15 K, 101 kPa, x2 = 0.913) was 0.177 ± 0.0048 mPa·s and the viscosity (293.25 K, 101 kPa, x2 = 0.438) was 0.2153 ± 0.0059 mPa·s. For the same compound, the viscosity (293.35 K, 101 kPa, x2 = 0.822) was 0.189 ± 0.0051 mPa·s, the viscosity (293.73 K, 101.13 kPa, x2 = 0.526) was 0.195 ± 0.0024 mPa·s and the viscosity (312.35 K, 101 kPa, x2 = 0.731) was 0.1511 ± 0.0041 mPa·s. For the same compound, the viscosity (312.55 K, 101 kPa, x2 = 0.115) was 0.1951 ± 0.0053 mPa·s, the viscosity (312.75 K, 101 kPa, x2 = 0.913) was 0.1394 ± 0.0038 mPa·s and the viscosity (312.85 K, 101 kPa, x2 = 0.635) was 0.1609 ± 0.0044 mPa·s. For the same compound, the viscosity (312.95 K, 101 kPa, x2 = 0.331) was 0.1754 ± 0.0048 mPa·s, the viscosity (312.95 K, 101 kPa, x2 = 0.54) was 0.1615 ± 0.0044 mPa·s and the viscosity (313.15 K, 101 kPa, x2 = 0.822) was 0.1495 ± 0.0041 mPa·s. The viscosity (313.25 K, 101 kPa, x2 = 0.438) was 0.1749 ± 0.0048 mPa·s.

`COc1ccccc1O` + Nc1ccccc1 showed a viscosity (303.15 K, 101 kPa, x2 = 0.1) of 4.74 ± 0.13 mPa·s, a viscosity (303.15 K, 101 kPa, x2 = 0.2) of 4.9 ± 0.13 mPa·s and a viscosity (303.15 K, 101 kPa, x2 = 0.3) of 5.11 ± 0.14 mPa·s. The viscosity (303.15 K, 101 kPa, x2 = 0.35) was 5.15 ± 0.14 mPa·s, the viscosity (303.15 K, 101 kPa, x2 = 0.4) was 5.23 ± 0.14 mPa·s and the viscosity (303.15 K, 101 kPa, x2 = 0.45) was 5.12 ± 0.14 mPa·s. The viscosity (303.15 K, 101 kPa, x2 = 0.5) was 5.09 ± 0.14 mPa·s, the viscosity (303.15 K, 101 kPa, x2 = 0.55) was 4.94 ± 0.13 mPa·s and the viscosity (303.15 K, 101 kPa, x2 = 0.6) was 4.86 ± 0.13 mPa·s. For the same compound, the viscosity (303.15 K, 101 kPa, x2 = 0.7) was 4.58 ± 0.12 mPa·s, the viscosity (303.15 K, 101 kPa, x2 = 0.8) was 4.23 ± 0.11 mPa·s and the viscosity (303.15 K, 101 kPa, x2 = 0.9) was 3.61 ± 0.1 mPa·s.
